# Source: patent US9927437B2, “Treating neurodegenerative disease” (THE BRIGHAM AND WOMEN'S HOSPITAL, INC., priority 2013, dated 2018)
# “Also recorded” adds a separate entry of the source.
# Experiments:
# EAE NOD mice = assay: EAE in NOD mice, progressive phase (clinical score, histopathology, body weight); format: in vivo
# [1] = test system: microglia and CNS-infiltrating monocytes; assay: mRNA expression in microglia and CNS-infiltrating monocytes from EAE NOD mice; format: in vivo, mouse
# Text: FIGS. 5a-m. B4GALT6 in astrocytes regulates the activation of microglia and CNS-infiltrating monocytes. (a) Heatmap depicting mRNA expression, as determined by nCounter Nanostring analysis, in microglia from naïve or EAE NOD mice treated with PDMP or vehicle. Representative data of three independent experiments. Statistical analysis by Student's t-test. (b) qPCR analysis of ccl5, il1b, opn, nos2, cd40, and H2-Aa gene expression relative to Gapdh. (c, d) Mean normalized expression of genes associated with M1- or M2-phenotype in microglia (Table 3) (c) and Ly6C^high monocytes (d). Statistical analysis by Student's t-test. (e-h) primary microglia were pre-treated with PDMP, LacCer, or vehicle, followed by activation with LPS/IFNγ for 6 h or left un-treated (control) as in (FIG. 3a). mRNA expression was determined by nCounter Nanostring analysis (e, g), and microglial viability was determined (f, h). Representative data of five independent experiments. (i) Mixed glia cultures were treated with mild trypsin/EDTA (T/E) to remove the astrocyte monolayer leaving only the microglia attached to the plate, or left un-treated. Cultures were pre-treated with PDMP, LacCer or vehicle, and activated with LPS/IFNγ for 6 h. Following activation, both cultures were washed, and incubated with mild T/E to remove the astrocytes; thus, leaving only the microglia (MG) attached to the plates. RNA was harvested from microglia treated in the absence [MG (pure)] or presence [MG (mixed)] of astrocytes and gene expression was analyzed by qPCR for the expression ccl2, ccl5 and nos2 relative to gapdh. Data present the relative effect of PDMP (left panel) or LacCer (right panel) pre-treatment on LPS/IFNγ-triggered gene induction, from five independent experiments. Statistical analysis by Student's t-test. (j) Mixed glia were pre-treated with indicated blocking antibodies or appropriate isotype controls (25 μg/ml) and LacCer […] or vehicle control, and then activated with LPS/IFNγ for 6 h. Microglia were isolated as in (i), and microglial-nos2 expression was determined by qRT relative to gapdh and presented as in (i). Representative data of three independent experiments. (k) ChIP analysis of the interaction of NF-κB, and IRF-1 with the csf2 promoter in primary cultured astrocytes. (l, m) Expression csf2 in astrocytes (l) and nos2 in microglial cells (m) isolated form the CNS of chronic EAE NOD mice, 10 days after the i.c.v. injection of astrocytes-specific shRNA lentivirus as in (FIG. 3j). Data from two independent experiments. For all data, means and s.e.m. are shown. *P<0.05, **P<0.01, ***P<0.001 and n.s. not significant.
# Mononuclear cells were isolated from the CNS as previously described^50 with minor modifications. […]
# Ly6C^high monocytes = assay: Viability assay, monocytes; format: cell-based, mouse; conditions: 1 h pre-treatment, 3 h
Compound,"EAE disease progression (EAE NOD mice; NOD EAE, i.c.v. 1×10^7 IU lentivirus at day 35)","nos2 expression in microglia ([1]; chronic NOD EAE, 10 days after i.c.v. shRNA lentivirus)","disease progression, axonal loss (EAE NOD mice; NOD EAE, 20 mg/kg i.p. twice a day from day 40, lumbar spinal cord, Bielschowsky's silver stain)","disease progression, demyelination (EAE NOD mice; NOD EAE, 20 mg/kg i.p. twice a day from day 40, lumbar spinal cord, Luxol fast blue)","disease progression, clinical score (EAE NOD mice; NOD EAE, 20 mg/kg i.p. twice a day from day 40 after EAE induction)",viability of purified Ly6C^high monocytes (Ly6C^high monocytes),M1-associated genes in microglia and CNS-infiltrating monocytes ([1]; NOD EAE),M2-associated genes in microglia and CNS-infiltrating monocytes ([1]; NOD EAE),expression of genes associated with microglia activation ([1]; microglia from NOD EAE progressive phase),"EAE disease clinical symptoms (EAE NOD mice; NOD mice, 10 μg per mouse i.p. every 3 days from day 35 after EAE induction)"
shB4galt6: lentivirus-delivered shRNA against b4galt6 (TRCN0000334278; SEQ ID NO:3) (guide CGATGGACTGAACAATTTATTCTCGAGAATAAATTGTTCAGTCCACG),suppressed disease progression; also recorded: ameliorates disease severity,decreased nos2 expression,,,,,,,,
"CCCCCCCCCC(=O)N[C@H](CN1CCOCC1)[C@H](O)c1ccccc1 [PDMP, D-threo-1-phenyl-2-decanoylamino-3-morpholino-1-propanol]",,,suppression of disease progression,suppression of disease progression,suppression of disease progression,did not affect,significant down regulation,up-regulation,reduced the expression,
lactosylceramide [LacCer],,,,,,did not affect,,,,significant worsening of disease clinical symptoms
